From ChEMBL document CHEMBL5465560, “Selectivity Literature for EUbOPEN Chemogenomic Library” (2024)

Assays:
[1] = test system: Proto-oncogene tyrosine-protein kinase receptor Ret (Homo sapiens), P07949 [M918T]; assay: (§1) Selectivity interaction (KinomeScan (DiscoverX)) EUB0000666a RET; conditions: at 10 µM
[2] = test system: Proto-oncogene tyrosine-protein kinase receptor Ret (Homo sapiens), P07949 [V804M]; assay: as §1; conditions: at 10 µM
[3] = molecular target: Proto-oncogene tyrosine-protein kinase receptor Ret (Homo sapiens, UniProt P07949); assay: as §1; conditions: at 10 µM
[4] = test system: Proto-oncogene tyrosine-protein kinase receptor Ret (Homo sapiens), P07949 [V804L]; assay: as §1; conditions: at 10 µM
[5] = molecular target: T1, Tyrosine-protein kinase JAK3 (Homo sapiens, UniProt P52333); assay: Selectivity interaction (Enyzmatic assay) EUB0000601a JAK3
T1 sequence (P52333 whole entry): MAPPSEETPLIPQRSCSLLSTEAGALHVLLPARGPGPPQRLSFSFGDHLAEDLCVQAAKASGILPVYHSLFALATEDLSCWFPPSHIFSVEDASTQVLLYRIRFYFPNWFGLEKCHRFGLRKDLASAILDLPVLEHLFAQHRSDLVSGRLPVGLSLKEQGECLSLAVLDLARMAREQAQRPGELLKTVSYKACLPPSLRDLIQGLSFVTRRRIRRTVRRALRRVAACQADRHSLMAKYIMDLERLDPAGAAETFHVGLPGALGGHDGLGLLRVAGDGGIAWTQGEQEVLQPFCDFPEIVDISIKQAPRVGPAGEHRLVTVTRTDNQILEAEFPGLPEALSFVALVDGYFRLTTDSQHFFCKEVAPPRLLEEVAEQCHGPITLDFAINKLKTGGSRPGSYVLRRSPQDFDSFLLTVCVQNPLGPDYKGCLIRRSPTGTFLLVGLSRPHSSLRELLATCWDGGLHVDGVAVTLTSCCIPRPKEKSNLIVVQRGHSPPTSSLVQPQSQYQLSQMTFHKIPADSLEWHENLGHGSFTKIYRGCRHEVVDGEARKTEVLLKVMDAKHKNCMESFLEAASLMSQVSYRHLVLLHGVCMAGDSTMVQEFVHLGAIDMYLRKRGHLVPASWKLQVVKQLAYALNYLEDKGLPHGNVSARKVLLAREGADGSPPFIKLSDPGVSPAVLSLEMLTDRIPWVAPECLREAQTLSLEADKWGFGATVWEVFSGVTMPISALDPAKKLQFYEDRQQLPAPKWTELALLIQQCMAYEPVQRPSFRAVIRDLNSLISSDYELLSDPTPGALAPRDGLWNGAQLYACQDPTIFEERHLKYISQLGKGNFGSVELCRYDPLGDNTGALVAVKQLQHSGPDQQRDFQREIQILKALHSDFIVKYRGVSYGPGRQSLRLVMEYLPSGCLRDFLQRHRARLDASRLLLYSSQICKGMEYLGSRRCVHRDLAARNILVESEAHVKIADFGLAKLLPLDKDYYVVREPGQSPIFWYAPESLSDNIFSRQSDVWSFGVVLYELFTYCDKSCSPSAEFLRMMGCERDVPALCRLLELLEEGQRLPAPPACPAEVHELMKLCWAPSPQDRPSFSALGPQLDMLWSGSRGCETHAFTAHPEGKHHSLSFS

[6] = molecular target: Protein polybromo-1 (Homo sapiens) (UniProt Q86U86); assay: Selectivity interaction (Human bromodomain panel (DSF assay)) EUB0000233b PBRM1
[7] = molecular target: Tyrosine-protein kinase receptor UFO (Homo sapiens) (UniProt P30530); assay: Selectivity interaction (Kinase panel (Invitrogen)) EUB0000639a AXL; conditions: at 200 nM
[8] = molecular target: Insulin receptor-related protein (Homo sapiens) (UniProt P14616); assay: Selectivity interaction (KinomeScan (DiscoverX)) EUB0000595a INSRR; conditions: at 10 µM
[9] = molecular target: T2, Cyclin-dependent kinase 11A (Homo sapiens) (UniProt Q9UQ88); assay: Selectivity interaction (KinomeScan (DiscoverX)) EUB0000092b CDK11A; conditions: at 10 µM
T2 sequence (whole entry): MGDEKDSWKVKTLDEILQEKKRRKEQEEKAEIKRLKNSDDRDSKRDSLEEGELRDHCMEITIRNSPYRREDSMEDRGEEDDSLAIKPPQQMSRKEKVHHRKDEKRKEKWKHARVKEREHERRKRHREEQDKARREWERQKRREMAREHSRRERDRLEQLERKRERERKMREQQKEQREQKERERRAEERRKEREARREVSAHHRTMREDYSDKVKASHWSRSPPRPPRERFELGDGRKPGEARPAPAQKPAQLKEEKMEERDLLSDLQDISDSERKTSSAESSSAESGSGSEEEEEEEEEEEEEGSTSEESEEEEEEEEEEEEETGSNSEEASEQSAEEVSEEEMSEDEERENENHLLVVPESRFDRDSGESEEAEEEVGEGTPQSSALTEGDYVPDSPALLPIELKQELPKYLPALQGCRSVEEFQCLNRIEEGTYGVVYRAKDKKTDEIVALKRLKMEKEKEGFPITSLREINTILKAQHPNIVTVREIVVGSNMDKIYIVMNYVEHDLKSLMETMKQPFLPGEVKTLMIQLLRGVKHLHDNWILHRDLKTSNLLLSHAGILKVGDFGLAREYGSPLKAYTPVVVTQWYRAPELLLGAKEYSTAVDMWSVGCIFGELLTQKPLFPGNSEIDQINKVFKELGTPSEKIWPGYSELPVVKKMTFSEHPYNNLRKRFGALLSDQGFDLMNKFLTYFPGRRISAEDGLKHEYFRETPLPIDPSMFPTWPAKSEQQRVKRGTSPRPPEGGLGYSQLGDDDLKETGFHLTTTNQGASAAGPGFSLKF

[10] = molecular target: Dual specificity tyrosine-phosphorylation-regulated kinase 1A (Homo sapiens, UniProt Q13627); assay: Selectivity interaction (Kinase screening (Nanosyn)) EUB0000604a DYRK1A
[11] = test system: Epidermal growth factor receptor (Homo sapiens), P00533 [L858R,T790M]; conditions: at 10 µM
[12] = molecular target: Mitogen-activated protein kinase 3 (Homo sapiens, UniProt P27361); assay: Selectivity interaction (Upstate Kinase Profiler service (Millipore)) EUB0000056c MAPK3; conditions: at 1 µM
[13] = molecular target: 5'-AMP-activated protein kinase catalytic subunit alpha-1 (Homo sapiens, UniProt Q13131); assay: Selectivity interaction (KinomeScan (DiscoverX)) EUB0000607a PRKAA1; conditions: at 10 µM
[14] = molecular target: Cyclin-dependent kinase 2 (Homo sapiens, UniProt P24941); assay: Selectivity interaction (KinomeScan (DiscoverX)) EUB0000607a CDK2; conditions: at 10 µM
[15] = molecular target: Casein kinase I isoform delta (Homo sapiens, UniProt P48730); assay: Selectivity interaction (ProQinase) EUB0000171b CSNK1D
Sequence of Casein kinase I isoform delta (P48730 whole entry, looked up, canonical isoform): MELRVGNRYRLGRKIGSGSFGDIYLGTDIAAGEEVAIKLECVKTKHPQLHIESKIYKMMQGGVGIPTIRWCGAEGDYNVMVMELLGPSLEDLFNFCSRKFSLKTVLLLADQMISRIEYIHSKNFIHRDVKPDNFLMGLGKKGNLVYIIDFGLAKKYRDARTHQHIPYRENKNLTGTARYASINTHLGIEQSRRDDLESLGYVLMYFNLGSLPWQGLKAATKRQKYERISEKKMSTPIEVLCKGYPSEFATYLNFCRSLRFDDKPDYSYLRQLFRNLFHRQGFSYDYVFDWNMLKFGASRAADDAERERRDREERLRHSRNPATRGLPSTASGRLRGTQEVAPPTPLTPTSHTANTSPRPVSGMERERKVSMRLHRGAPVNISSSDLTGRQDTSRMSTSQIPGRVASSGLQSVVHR

Sequence of Protein polybromo-1 (Homo sapiens) (Q86U86 whole entry): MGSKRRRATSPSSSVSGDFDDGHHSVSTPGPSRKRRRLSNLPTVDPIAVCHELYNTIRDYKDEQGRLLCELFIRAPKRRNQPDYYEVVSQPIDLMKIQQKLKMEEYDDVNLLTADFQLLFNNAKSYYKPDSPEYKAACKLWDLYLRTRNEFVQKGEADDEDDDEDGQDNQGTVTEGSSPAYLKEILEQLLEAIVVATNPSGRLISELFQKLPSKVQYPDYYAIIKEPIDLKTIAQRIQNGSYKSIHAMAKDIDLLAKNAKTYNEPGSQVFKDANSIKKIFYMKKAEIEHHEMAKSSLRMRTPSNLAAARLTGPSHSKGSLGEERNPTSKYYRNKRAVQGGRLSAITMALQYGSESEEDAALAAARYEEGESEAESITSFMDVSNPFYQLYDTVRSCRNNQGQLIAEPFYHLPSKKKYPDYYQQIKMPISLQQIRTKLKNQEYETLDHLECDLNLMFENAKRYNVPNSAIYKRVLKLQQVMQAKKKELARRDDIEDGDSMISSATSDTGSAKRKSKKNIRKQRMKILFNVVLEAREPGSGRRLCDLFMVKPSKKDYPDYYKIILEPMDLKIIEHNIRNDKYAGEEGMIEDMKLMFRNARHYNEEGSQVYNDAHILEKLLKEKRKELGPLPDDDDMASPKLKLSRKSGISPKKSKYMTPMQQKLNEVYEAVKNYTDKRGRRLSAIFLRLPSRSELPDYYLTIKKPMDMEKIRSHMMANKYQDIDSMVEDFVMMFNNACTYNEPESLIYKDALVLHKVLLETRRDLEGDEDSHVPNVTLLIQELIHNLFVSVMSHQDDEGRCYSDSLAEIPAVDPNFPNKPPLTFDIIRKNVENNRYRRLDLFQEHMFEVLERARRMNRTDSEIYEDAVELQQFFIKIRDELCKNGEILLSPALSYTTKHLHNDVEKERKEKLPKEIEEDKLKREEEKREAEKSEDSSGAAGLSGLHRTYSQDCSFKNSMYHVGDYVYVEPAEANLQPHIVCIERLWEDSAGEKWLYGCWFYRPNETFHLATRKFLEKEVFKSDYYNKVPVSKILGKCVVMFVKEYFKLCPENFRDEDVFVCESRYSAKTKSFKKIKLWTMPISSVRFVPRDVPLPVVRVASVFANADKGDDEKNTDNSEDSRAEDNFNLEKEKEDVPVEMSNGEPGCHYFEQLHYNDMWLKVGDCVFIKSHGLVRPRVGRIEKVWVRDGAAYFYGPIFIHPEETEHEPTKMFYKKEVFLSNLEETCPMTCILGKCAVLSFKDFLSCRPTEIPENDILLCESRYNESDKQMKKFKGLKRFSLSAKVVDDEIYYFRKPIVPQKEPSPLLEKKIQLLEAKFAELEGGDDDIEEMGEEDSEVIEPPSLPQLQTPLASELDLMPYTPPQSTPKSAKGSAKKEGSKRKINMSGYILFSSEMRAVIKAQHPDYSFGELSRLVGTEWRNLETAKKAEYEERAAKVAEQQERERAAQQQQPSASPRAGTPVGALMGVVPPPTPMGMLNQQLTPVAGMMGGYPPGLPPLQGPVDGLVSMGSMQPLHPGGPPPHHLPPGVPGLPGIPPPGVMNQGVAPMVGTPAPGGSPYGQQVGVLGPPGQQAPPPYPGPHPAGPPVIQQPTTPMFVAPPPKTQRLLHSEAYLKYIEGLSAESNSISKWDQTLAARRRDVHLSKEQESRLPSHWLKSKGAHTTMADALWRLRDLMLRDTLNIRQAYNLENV
Sequence of Epidermal growth factor receptor (Homo sapiens), P00533 [L858R,T790M] (P00533 whole entry T790M/L858R, looked up): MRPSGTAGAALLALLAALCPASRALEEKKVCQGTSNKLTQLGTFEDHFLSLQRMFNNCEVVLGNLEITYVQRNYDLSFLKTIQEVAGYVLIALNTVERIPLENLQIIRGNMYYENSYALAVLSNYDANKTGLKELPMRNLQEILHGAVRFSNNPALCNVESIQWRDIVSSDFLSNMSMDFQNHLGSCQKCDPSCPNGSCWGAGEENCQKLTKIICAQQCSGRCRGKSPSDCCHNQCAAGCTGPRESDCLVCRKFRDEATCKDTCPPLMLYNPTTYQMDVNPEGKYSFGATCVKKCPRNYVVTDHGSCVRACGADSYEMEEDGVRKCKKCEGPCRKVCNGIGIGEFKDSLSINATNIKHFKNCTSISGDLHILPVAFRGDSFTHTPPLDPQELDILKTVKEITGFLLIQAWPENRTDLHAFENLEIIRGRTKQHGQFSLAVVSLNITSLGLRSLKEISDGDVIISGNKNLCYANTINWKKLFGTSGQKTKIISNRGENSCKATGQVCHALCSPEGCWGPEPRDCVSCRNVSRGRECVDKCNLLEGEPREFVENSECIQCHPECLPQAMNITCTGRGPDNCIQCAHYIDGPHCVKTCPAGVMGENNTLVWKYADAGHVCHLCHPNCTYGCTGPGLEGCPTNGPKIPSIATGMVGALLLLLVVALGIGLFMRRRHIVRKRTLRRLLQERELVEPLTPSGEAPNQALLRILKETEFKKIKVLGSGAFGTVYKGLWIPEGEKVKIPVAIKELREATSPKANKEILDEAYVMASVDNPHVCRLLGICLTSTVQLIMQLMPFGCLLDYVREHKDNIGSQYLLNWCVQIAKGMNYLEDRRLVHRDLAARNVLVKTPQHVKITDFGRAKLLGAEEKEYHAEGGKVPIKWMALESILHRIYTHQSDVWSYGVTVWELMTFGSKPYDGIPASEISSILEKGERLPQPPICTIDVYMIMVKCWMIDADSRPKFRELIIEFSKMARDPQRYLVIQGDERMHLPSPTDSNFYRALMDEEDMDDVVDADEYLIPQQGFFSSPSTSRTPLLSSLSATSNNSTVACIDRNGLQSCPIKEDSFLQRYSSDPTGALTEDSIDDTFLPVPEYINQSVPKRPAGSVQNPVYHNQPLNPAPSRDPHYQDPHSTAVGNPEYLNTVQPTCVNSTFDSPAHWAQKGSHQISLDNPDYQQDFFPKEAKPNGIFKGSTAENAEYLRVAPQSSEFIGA
Sequence of Insulin receptor-related protein (Homo sapiens) (P14616 27-742 limits assumed): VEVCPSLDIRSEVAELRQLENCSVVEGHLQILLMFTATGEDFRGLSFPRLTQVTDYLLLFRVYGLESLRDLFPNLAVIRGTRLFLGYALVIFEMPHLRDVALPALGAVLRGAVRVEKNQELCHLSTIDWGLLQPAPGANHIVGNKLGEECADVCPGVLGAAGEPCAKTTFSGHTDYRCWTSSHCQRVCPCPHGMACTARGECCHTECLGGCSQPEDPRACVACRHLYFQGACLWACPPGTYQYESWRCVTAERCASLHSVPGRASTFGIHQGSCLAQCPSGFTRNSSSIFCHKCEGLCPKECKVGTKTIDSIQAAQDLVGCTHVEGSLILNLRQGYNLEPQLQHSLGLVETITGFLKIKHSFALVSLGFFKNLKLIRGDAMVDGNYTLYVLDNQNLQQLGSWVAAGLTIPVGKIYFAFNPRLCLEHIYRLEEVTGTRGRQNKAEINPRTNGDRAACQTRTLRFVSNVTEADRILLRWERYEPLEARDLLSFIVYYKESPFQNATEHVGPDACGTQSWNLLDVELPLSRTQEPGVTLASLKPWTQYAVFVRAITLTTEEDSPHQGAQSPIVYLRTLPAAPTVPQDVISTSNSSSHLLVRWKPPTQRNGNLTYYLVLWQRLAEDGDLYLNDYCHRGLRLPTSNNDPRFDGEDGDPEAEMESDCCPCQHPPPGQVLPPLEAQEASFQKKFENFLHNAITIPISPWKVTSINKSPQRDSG
Sequence of Insulin receptor-related protein (Homo sapiens) (P14616 747-1297 limits assumed): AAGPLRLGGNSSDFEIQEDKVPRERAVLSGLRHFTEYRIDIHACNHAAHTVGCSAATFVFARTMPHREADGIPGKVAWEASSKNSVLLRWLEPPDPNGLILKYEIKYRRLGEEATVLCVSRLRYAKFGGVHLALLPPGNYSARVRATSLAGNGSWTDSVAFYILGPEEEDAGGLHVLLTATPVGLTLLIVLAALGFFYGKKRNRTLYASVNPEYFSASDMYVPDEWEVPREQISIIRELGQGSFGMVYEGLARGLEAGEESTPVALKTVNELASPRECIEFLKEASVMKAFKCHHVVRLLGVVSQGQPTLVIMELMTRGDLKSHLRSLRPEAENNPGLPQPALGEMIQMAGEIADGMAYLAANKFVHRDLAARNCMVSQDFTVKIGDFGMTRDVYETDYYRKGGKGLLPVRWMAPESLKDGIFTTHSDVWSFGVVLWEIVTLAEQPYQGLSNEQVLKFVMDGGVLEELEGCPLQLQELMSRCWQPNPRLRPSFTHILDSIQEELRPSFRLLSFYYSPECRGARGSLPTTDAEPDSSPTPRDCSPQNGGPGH
Sequence of Mitogen-activated protein kinase 3 (P27361 whole entry): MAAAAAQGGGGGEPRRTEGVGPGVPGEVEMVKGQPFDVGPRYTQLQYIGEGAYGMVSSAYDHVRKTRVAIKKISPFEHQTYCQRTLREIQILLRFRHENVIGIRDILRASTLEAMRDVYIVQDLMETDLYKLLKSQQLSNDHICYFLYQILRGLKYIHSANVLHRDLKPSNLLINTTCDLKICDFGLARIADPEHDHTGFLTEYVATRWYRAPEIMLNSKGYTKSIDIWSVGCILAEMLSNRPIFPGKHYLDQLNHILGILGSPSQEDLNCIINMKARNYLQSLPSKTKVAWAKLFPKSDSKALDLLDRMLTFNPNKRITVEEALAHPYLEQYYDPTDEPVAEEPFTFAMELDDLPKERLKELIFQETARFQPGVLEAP

O=C(NOC[C@H](O)CO)c1ccc(F)c(F)c1Nc1ccc(I)cc1F
% of control [1]: 79% | % of control [2]: 100% | % of control [3]: 90% | % of control [4]: 93%

CCc1cc(Nc2nccc(-c3c(-c4ccc(OC)c(C(=O)Nc5c(F)cccc5F)c4)nc4ccccn34)n2)c(OC)cc1N1CCC(N2CCN(S(C)(=O)=O)CC2)CC1
IC50 [5]: > 10 µM

CN(C)CCCOc1ccc(-c2cc(NCCCn3cccn3)nc(S(C)(=O)=O)n2)cc1
dTM [6]: < 2 K

CC[C@@H]1[C@H](F)C(=O)N[C@@H]1COc1nccc2cc(C(N)=O)c(OC)cc12 [ZIMLOVISERTIB]
% of inhibition [7]: 12.2%

COCC(=O)NC/C=C/c1ccc2ncnc(Nc3ccc(Oc4ccc(C)nc4)c(C)c3)c2c1 [CP-724714]
% of control [8]: 100%

CCC(=O)N1CCN(c2ccc(-n3c(=O)ccc4cnc5ccc(-c6cnc7ccccc7c6)cc5c43)cc2C(F)(F)F)CC1
% of control [9]: 1.2%

Cc1cnc(Nc2ccc(F)cc2Cl)nc1-c1c[nH]c(C(=O)N[C@H](CO)c2cccc(Cl)c2)c1
% of inhibition [10]: 3%

Cc1cc([C@@H](C)Nc2ccccc2C(=O)O)c2nc(N3CCOCC3)cc(=O)n2c1 [AZD-6482]
% of control [11]: 99%

Cc1ccc(-c2ccc3c(ccc4sc5c(c43)NC[C@@H](C)NC5=O)n2)cn1
% of inhibition [12]: -1%

CNC(=O)Nc1ccc(-c2nc(N3CC4CCC(C3)O4)c3cnn(C4CCC5(CC4)OCCO5)c3n2)cc1
% of control [13]: 94% | % of control [14]: 92%

C=CC(=O)Nc1cccc(C(=O)Nc2ccc(Nc3cc(-c4[nH]c(SC)nc4C)ccn3)cc2)c1
% of control ([15]; at 1 µM): 13% | % of control ([15]; at 5 µM): 3%
